Reference: US20090176817A1, “Method of Treatment of Diarrhea-Predominant Irritable Bowel Syndrome in a Subject” (priority 2005, published 2009)
Marks after values point to notes of the source that are not given here.

Legend:
clinical = conditions: both, human, in vivo, po, 8 mg
Description: (§1) The effect of hepatic impairment on the pharmacokinetics of cilansetron was evaluated in a multiple-dose, parallel group study in 14 healthy and 14 moderately to severely hepatically impaired male and female subjects, aged 41-70 years. Impaired subjects (Child-Pugh score 7 to 11) were matched to healthy subjects by age (±2 years), sex, menstrual status, and smoking history status. All subjects received oral cilansetron 8 mg TID on Days 1 to 5, and a single dose on the morning of Day 6. […] Blood samples were also collected at predose on Day 1, and at predose, 1 hour and 1.5 hours postdose on Day 6, for measurement of cilansetron protein binding in serum.

[1] = system: patients with malignant tumors; assay: Study K.241.5017: cisplatin-induced nausea and vomiting; type: in vivo, human; conditions: IV 8 mg TID
Description: The effect of cilansetron on nausea and vomiting has been studied in 2 clinical studies in cancer patients. Both studies were randomized, singleblind, positive-controlled, parallel-group, pilot studies in male and female patients with malignant tumors, to investigate the effect of cilansetron on cytostatic-induced nausea and vomiting. In both studies, patients were on their first cycle of chemotherapy and were being treated with cisplatin (275 mg/m2 as a single dose in Study S.24 1.2.10 1 and […] for 5 days in Study K.24 1 S O 17). Patients in Study S.24 1.2.10 1 were aged 40-74 years (ITT population=16) and patients in Study K.24 1 S O 17 were aged 39-74 years (ITT population=19). In both studies, patients were randomized to receive either […] or IV ondansetron 8 mg TID for 1 day (Study S.241.2.101) or 5 days (Study K.2415017), corresponding to the day(s) of their cisplatin administration. If nausea and vomiting were completely controlled on a treatment day, the second and/or third doses of cilansetron or ondansetron could be omitted on that day. The primary efficacy parameter in both studies was the combination of the occurrence of vomiting and the severity of nausea, with a responder being defined as a patient with no vomiting and not more than mild nausea during the treatment day(s). […]

[2] = Study S.241.1.110: pharmacokinetics in renal impairment, 2 mg TID; conditions: for AUC(0-τ) / Cmax / T½ / Tmax / Cmin: cilansetron 2 mg TID; for AUC(0-τ) / Cmax / T½ / Cmin: mean (%CV); for Tmax: median; for Cmin: Day 6 morning predose value
Description: The effect of renal impairment on the pharmacokinetics of cilansetron was evaluated in a study excluding subjects with end-stage renal disease, and utilizing a single-center, open-label, multiple-dose, parallel group study in 13 male and 9 female subjects, aged 33-74 years. […] Healthy subjects were matched to renally-impaired subjects with respect to age, weight, gender, and smoking status. All subjects received oral cilansetron 2 mg TID on Days 1 to 5, and a single dose on the morning of Day 6. Blood samples for measurement of plasma pharmacokinetics of cilansetron and its 4-hydroxy metabolites were collected up to 24 hours following dosing on Day 6, and log-transformed pharmacokinetic parameters for these analytes were statistically compared between study groups. Serum concentrations of unbound cilansetron and its 4-hydroxy metabolites were also measured prior to dosing and at 1 and 1.5 hours postdose on Day 6.

[3] = Study S.241.1.109: interaction with ketoconazole 200 mg BID; type: in vivo, human; conditions: for AUC(0-τ) / Cmax / Tmax: steady state; for AUC(0-τ): AUC(0-8); for AUC(0-τ) / Cmax: arith. mean; for Tmax: median
Description: In an open-label, randomized, parallel-group study in three groups of 12 healthy, male and female subjects (aged 19 to 45 years), subjects received a 2 mg single dose of cilansetron on Day 1, 2 mg TID on Days 2-13, and a 2 mg single dose on Day 14. […] All morning doses of cilansetron and enzyme inhibitors were administered immediately after a standard breakfast. […] For each treatment group, log-transformed cilansetron AUC(0-τ) and Cmax values on Day 14 (cilansetron+enzyme inhibitor) were compared statistically versus values on Day 7 (cilansetron alone).

[4] = Study S.241.1.107: pharmacokinetics in hepatic impairment, 8 mg TID; conditions: for AUC(0-τ): AUC(0-8); for AUC(0-τ) / Cmax / T½: arith. mean (%CV); for Tmax: median
Description: as §1

[5] = Study S.241.1.110: ex vivo protein binding in serum, healthy and renally impaired; conditions: for Fraction unbound ratio All Renal Groups Combined:Healthy / Fraction unbound ratio Mild:Healthy / Fraction unbound ratio Moderate:Healthy / Fraction unbound ratio Severe:Healthy: ratio (90% CI)
Description: The ex vivo protein binding of cilansetron and its 4-hydroxy metabolites has been measured in serum samples collected in a multiple-dose study in healthy and renally impaired male and female subjects, aged 33-74 years. […] Healthy subjects were matched to renally-impaired subjects with respect to age, weight, gender, and smoking status. All subjects received oral cilansetron 2 mg TID on Days 1 to 5, and a single dose on the morning of Day 6.

[6] = moderate renal impairment, Day 6
[7] = Cilansetron 2 mg TID + Ketoconazole 200 mg twice daily
[8] = Cilansetron 2 mg TID alone (ketoconazole group)
[9] = cilansetron + ketoconazole / cilansetron alone, ANOVA of log-transformed data
[10] = geometric LS mean ratio impaired/healthy, cilansetron 8 mg TID oral
[11] = healthy, cilansetron 8 mg TID oral
[12] = hepatically impaired, cilansetron 8 mg TID oral

## Cc1nccn1C[C@H]1CCc2c(c3cccc4c3n2CCC4)C1=O [Cilansetron, (R)-(−)-4,5,6,8,9,10-hexahydro-10-[(2-methyl-1H-imidazol-1-yl)methyl]-11H-pyrido-[3,2,1-jk]-carbazol-11-one]
clinical; AUC(0-τ), Geom. LS Mean
  AUC: 334 ng·h/mL
clinical
  Cmax: 94.4 ng/mL
clinical; Geom. LS Mean
  Cmax: 83.9 ng/mL
clinical; Tmax
  Tmax: 0.75 h
clinical; T½
  half-life: 8.16 h
clinical; Vz/F
  Vd/F: 388 L
[1]
  Response rate: 21.4%

## Cc1nccn1CC1CCc2c(c3cccc4c3n2CC[C@@H]4O)C1=O (stereo partly drawn) [(4S)-hydroxy cilansetron]
[2]; Day 6 1 h, Healthy
  Plasma Conc.: 1.60 (26) ng/mL
[2]; Day 6 1 h, Mild
  Plasma Conc.: 2.26 (43) ng/mL
[2]; Day 6 1 h, Moderate
  Plasma Conc.: 2.74 (58) ng/mL
[2]; Day 6 1 h, Severe
  Plasma Conc.: 8.32 (40) ng/mL
[2]; Day 6, geometric LS mean ratio (90% CI)
  AUC(0-τ) ratio Mild/Healthy: 119 (85, 168) %
[2]; Day 6, ratio (90% CI)
  AUC(0-τ) ratio Moderate/Healthy: 174 (120, 251)* %
  AUC(0-τ) ratio Renal Combined/Healthy: 219 (168, 286)* %
  AUC(0-τ) ratio Severe/Healthy: 507 (351, 733)* %
  Cmax ratio Mild/Healthy: 129 (91, 181) %
  Cmax ratio Moderate/Healthy: 171 (118, 248)* %
  Cmax ratio Renal Combined/Healthy: 220 (168, 288)* %
  Cmax ratio Severe/Healthy: 485 (335, 702)* %
  T½ ratio Mild/Healthy: 108 (81, 144) %
  T½ ratio Moderate/Healthy: 142 (104, 193) %
  T½ ratio Renal Combined/Healthy: 142 (113, 177)* %
  T½ ratio Severe/Healthy: 186 (136, 254)* %
[2]; Day 6 […], Healthy
  Plasma Conc.: 1.68 (25) ng/mL
[2]; Day 6 […], Mild
  Plasma Conc.: 1.91 (35) ng/mL
[2]; Day 6 […], Moderate
  Plasma Conc.: 2.98 (56) ng/mL
[2]; Day 6 […], Severe
  Plasma Conc.: 8.57 (32) ng/mL
[2]; healthy subjects, Day 6
  AUC(0-τ): 12.9 (25) ng · h/mL
  Cmax: 2.15 (21) ng/mL
  T½: 8.68 (29) h
  Tmax: 2.00 h
[2]; healthy subjects
  Cmin: 1.24 (31) ng/mL
[2]; mild impairment
  Mean AUC(0-τ) increase vs healthy: 19%
  Mean Cmax increase vs healthy: 29%
[2]; mild renal impairment, Day 6
  AUC(0-τ): 15.3 (25) ng · h/mL
  Cmax: 2.77 (22) ng/mL
  T½: 9.31 (24) h
  Tmax: 2.00 h
[2]; mild renal impairment
  Cmin: 1.76 (38) ng/mL
[2]; moderate impairment
  Mean AUC(0-τ) increase vs healthy: 74%
  Mean Cmax increase vs healthy: 71%
[2]; [6]
  AUC(0-τ): 25.3 (64) ng · h/mL
  Cmax: 4.10 (60) ng/mL
  T½: 12.4 (28) h
  Tmax: 1.75 h
[2]; moderate renal impairment
  Cmin: 2.71 (72) ng/mL
[2]; severe impairment
  Mean AUC(0-τ) increase vs healthy: 407%
  Mean Cmax increase vs healthy: 385%
[2]; severe renal impairment, Day 6
  AUC(0-τ): 67.0 (35) ng · h/mL
  Cmax: 11.2 (46) ng/mL
  T½: 16.7 (45) h
  Tmax: 1.40 h
[2]; severe renal impairment
  Cmin: 7.00 (35) ng/mL
[3]; [7]
  AUC(0-τ): 13.5 ng·h/mL
  Cmax: 2.29 ng/mL
  Tmax: 2.00 h
[3]; [8]
  AUC(0-τ): 8.42 ng·h/mL
  Cmax: 1.35 ng/mL
  Tmax: 3.00 h
[3]; [9]
  AUC(0-τ) Ratio (Treatment B/A): 163%
  Cmax Ratio (Treatment B/A): 174%
[4]; [10]
  AUC(0-τ) Ratio: 0.68
  Cmax Ratio: 0.64
[4]; [11]
  AUC(0-τ), Geom. LS Mean: 42.5 ng·h/mL
  Cmax, Geom. LS Mean: 6.89 ng/mL
  AUC(0-τ): 47.9 (36) ng · h/mL
  Cmax: 7.57 (33) ng/mL
  T½: 7.65 (17) h
  Tmax: 3.00 h
[4]; [12]
  AUC(0-τ), Geom. LS Mean: 29.1 ng·h/mL
  Cmax, Geom. LS Mean: 4.39 ng/mL
  AUC(0-τ): 33.8 (57) ng · h/mL
  Cmax: 5.17 (59) ng/mL
  T½: 9.41 (30) h
  Tmax: 3.00 h
[4]; in vivo
  AUC(0-τ) decrease with hepatic impairment: 32%
  Cmax decrease with hepatic impairment: 36%
[5]; 1 h
  Fraction unbound ratio All Renal Groups Combined:Healthy: 102 (86, 121) %
  Fraction unbound ratio Mild:Healthy: 81 (65, 101) %
  Fraction unbound ratio Moderate:Healthy: 124 (98, 156) %
  Fraction unbound ratio Severe:Healthy: 106 (84, 133) %
[5]; Day 6 1 h, Healthy
  Fraction Unbound in Serum: 53.6 (20) %
[5]; Day 6 1 h, Mild
  Fraction Unbound in Serum: 42.8 (7) %
[5]; Day 6 1 h, Moderate
  Fraction Unbound in Serum: 69.3 (45) %
[5]; Day 6 1 h, Severe
  Fraction Unbound in Serum: 56.1 (15) %
[5]; Day 6 […], Healthy
  Fraction Unbound in Serum: 58.0 (21) %
[5]; Day 6 […], Mild
  Fraction Unbound in Serum: 46.3 (11) %
[5]; Day 6 […], Moderate
  Fraction Unbound in Serum: 57.4 (28) %
[5]; Day 6 […], Severe
  Fraction Unbound in Serum: 42.4 (9) %
[5]; Day 6 predose, Healthy
  Fraction Unbound in Serum: 51.9 (24) %
[5]; Day 6 predose, Mild
  Fraction Unbound in Serum: 48.9 (40) %
[5]; Day 6 predose, Moderate
  Fraction Unbound in Serum: 54.0 (26) %
[5]; Day 6 predose, Severe
  Fraction Unbound in Serum: 51.4 (30) %
[5]; […]
  Fraction unbound ratio All Renal Groups Combined:Healthy: 84 (72, 99) %
  Fraction unbound ratio Mild:Healthy: 81 (67, 99) %
  Fraction unbound ratio Moderate:Healthy: 99 (80, 123) %
  Fraction unbound ratio Severe:Healthy: 75 (60, 93)^b %
[5]; healthy subjects
  Protein bound on average: 42.0-48.1%
[5]; predose
  Fraction unbound ratio All Renal Groups Combined:Healthy: 98 (79, 121) %
  Fraction unbound ratio Mild:Healthy: 91 (69, 121) %
  Fraction unbound ratio Moderate:Healthy: 104 (77, 140) %
  Fraction unbound ratio Severe:Healthy: 98 (73, 133) %
[5]; therapeutic concentration range
  Plasma protein bound: 42-48%
